# Assay results published in US20230331683A1, “INHIBITORS OF SPINSTER HOMOLOG 2 (SPNS2) FOR USE IN THERAPY” (University of Virginia Patent Foundation, priority 2020, published 2023).
# Where a name gives a salt, the structure may show the parent alone.
# Molecular target: mouse SPNS2 (Mus musculus (Mouse), UniProt Q91VM4)
# Experiment: S1P Transporter Assay (S1P release from whole cells expressing SPNS2)
# Assay type: cell-based
# Settings: in vitro inhibition against SPNS2; HeLa cells expressing mouse SPNS2, S1P release into media after 18 hours; compounds as their pharmaceutical salts
# Procedure: Transporter assays are vectorial and therefore require measurement of the transported analyte in different compartments. The S1P transporter SPNS2 only exports S1P, which obviates measuring uptake of S1P into transporter-expressing cells. Thus, transporter activity was determined by quantifying S1P release from whole cells expressing SPNS2. SPNS2 inhibitor potency was assessed using whole cell assays. HeLa cells expressing mouse SPNS2 were used to determine inhibitor potency (IC50). Cells were plated onto 12 well plates and assayed when the cell monolayers became confluent. Cell growth media (RPMI-1640 containing 10% fetal bovine serum) was replaced with 2 mL of serum-free media (RPMI-1640) containing fatty acid free bovine serum albumin (BSA) (0.2 % w/v) and supplemented with 4-deoxypyridoxine (DOP) (1 mM), NaF (2 mM), Na3VO4 (0.2 mM) to inhibit S1P degradation. Test articles (1 × 10-9 - 1 × 10^-4 M) were assayed in duplicate or triplicate. After 18 hours, media was collected, an internal recovery standard (0.005 mL of 5 × 10^-7 M deuterated (d7) S 1P in methanol) was added, the BSA was precipitated with trichloroacetic acid and the bound S1P extracted with methanol. S1P and S1P-d7 were measured by liquid chromatography mass spectrometry. Inhibitor potency at the human SPNS2 ortholog was determined by an analogous assay using U-937 cells, which endogenously express human SPNS2.
# Chain of mouse SPNS2 (Q91VM4 whole entry): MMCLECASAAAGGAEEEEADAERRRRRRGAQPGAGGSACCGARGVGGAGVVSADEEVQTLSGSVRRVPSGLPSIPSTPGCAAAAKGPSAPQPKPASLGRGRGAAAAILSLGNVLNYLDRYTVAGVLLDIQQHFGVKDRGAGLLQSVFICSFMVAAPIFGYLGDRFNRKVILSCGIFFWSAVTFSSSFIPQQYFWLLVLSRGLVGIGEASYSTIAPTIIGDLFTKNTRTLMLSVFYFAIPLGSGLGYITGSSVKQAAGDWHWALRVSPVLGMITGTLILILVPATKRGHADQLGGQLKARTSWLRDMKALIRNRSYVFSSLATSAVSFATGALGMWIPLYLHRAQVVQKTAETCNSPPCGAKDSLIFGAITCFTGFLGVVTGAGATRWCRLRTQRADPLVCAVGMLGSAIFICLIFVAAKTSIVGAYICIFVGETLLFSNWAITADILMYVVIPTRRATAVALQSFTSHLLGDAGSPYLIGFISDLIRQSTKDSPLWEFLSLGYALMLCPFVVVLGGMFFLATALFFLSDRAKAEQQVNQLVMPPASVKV
row,SMILES,IC50 [µM]
1,CCCCCCCCCCc1ccc(NC(=O)[C@@H]2CCCNC2)cc1 [Compound 2a],> 2
2,CCCCCCCCCCc1ccc(NC(=O)[C@@H]2CCNC2)cc1 [Compound 2b],> 2
3,"CCCCCCCCCCc1ccc(NC(=O)CCCN)cc1 [Compound 2c, 4-amino-N-(4-decylphenyl)butanamide Hydrochloride]",≤ 2
4,"CCCCCCCCCCc1ccc(NC(=O)CCN)cc1 [Compound 2d, 3-amino-N-(4-decylphenyl)propanamide Hydrochloride]",≤ 2
5,"CCCCCCCCCCc1ccc(NC(=O)CCCCN)cc1 [Compound 2e, 5-amino-N-(4-decylphenyl)pentanamide Hydrochloride]",> 2
6,"CCCCCCCCCCc1ccc(NC(=O)CCCCCN)cc1 [Compound 2f, 6-amino-N-(4-decylphenyl)hexanamide Hydrochloride]",≤ 2
7,"CCCCCCCCCc1ccc(NC(=O)CCCN)cc1 [Compound 2g, 4-amino-N-(4-nonylphenyl)butanamide Hydrochloride]",> 2
8,"CCCCCCCCc1ccc(NC(=O)CCCN)cc1 [Compound 2h, 4-amino-N-(4-octylphenyl)butanamide Hydrochloride]",> 2
9,"CCCCCCCCCCc1ccc(NC(=O)C[C@@H]2CCNC2)cc1 [Compound 2i, (S)-N-decylphenyl)-2-(pyrrolidin-3-yl)acetamide Hydrochloride]",≤ 2
10,"CCCCCCCCCCc1ccc(NC(=O)C[C@H]2CCNC2)cc1 [Compound 2j, (R)-N-decylphenyl)-2-(pyrrolidin-3-yl)acetamide Hydrochloride]",≤ 2
11,"CCCCCCCCCCc1ccc(NC(=O)CCCN)c(F)c1 [Compound 2l, amino-N-decyl-2-fluorophenyl)butanamide Hydrochloride]",> 2
12,"CCCCCCCCCOc1ccc(NC(=O)CCCN)cc1C(F)(F)F [Compound 2m, 4-amino-N-(4-(nonyloxy)-3-(trifluoromethyl)phenyl)butanamide hydrochloride]",> 2
13,"CCCCCCCCCCc1ccc(NC(=O)CCCNC)cc1 [Compound 2n, N-decylphenyl)-4-(methylamino)butanamide Hydrochloride]",> 2
14,"CCCCCCCCCCc1ccc(NC(=O)C2CCNCC2)cc1 [Compound 2o, N-decylphenyl)piperidine-4-carboxamide Hydrochloride]",> 2
15,"CCCCCCCCCCc1ccc(NC(=O)CCCN(C)C)cc1 [Compound 2p, 4-(dimethylamino)-N-(4-decylphenyl)butanamide Hydrochloride]",> 2
16,"CCCCCCCCCCc1ccc(NC(=O)[C@@H]2CCCN(C(=N)N)C2)cc1 [Compound 4a, (R)carbamimidoyl-N-(4-decylphenyl)piperidine-3-carboxamide 2,2,2-trifluoroacetate]",≤ 2
17,"CCCCCCCCCCc1ccc(NC(=O)CCCNC(=N)N)cc1 [Compound 4c, N-decylphenyl)-4-guanidinobutanamide Hydrochloride]",≤ 2
18,"CCCCCCCCCCc1ccc2oc(CCN)nc2c1 [Compound 8a, 2-Decylbenzo[d]oxazol-2-yl)ethan-1-amine Hydrochloride]",> 2
19,"CCCCCCCCCCc1ccc2oc(CCCN)nc2c1 [Compound 8b, 3-Decylbenzo[d]oxazol-2-yl)propan-1-amine Hydrochloride]",> 2
20,"CCCCCCCCCCc1ccc2oc(CCCCCN)nc2c1 [Compound 8c, 5-Decylbenzo[d]oxazol-2-yl)pentan-1-amine Hyrdrochloride]",> 2
21,"CCCCCCCCCCc1ccc2nc(CCN)oc2c1 [Compound 8d, 2-Decylbenzo[d]oxazol-2-yl)ethan-1-amine Hydrochloride]",> 2
22,"CCCCCCCCc1ccc2oc(NCCN)nc2c1 [Compound 13a, N^1-octylbenzo[d]oxazol-2-yl)ethane-1,2-diamine hydrochloride]",> 2
23,"CCCCCCCCCCc1ccc2nc(N3CC[C@@H](N)C3)oc2c1 [Compound 13aa, (R)(6-decylbenzo[d]oxazol-2-yl)pyrrolidin-3-amine Hydrochloride]",> 2
24,"CCCCCCCCCCc1ccc2nc(NC3CCNCC3)oc2c1 [Compound 13ab, 6-decyl-N-(piperidin-4-yl)benzo[d]oxazol-2-amine Hydrochloride]",≤ 2
25,"CCCCCCCCCc1ccc2oc(NCCN)nc2c1 [Compound 13b, N^1-nonylbenzo[d]oxazol-2-yl)ethane-1,2-diamine hydrochloride]",> 2

row,SMILES,IC50 [µM]
1,"CCCCCCCCCCc1ccc2oc(NCCN)nc2c1 [Compound 13c, N^1-decylbenzo[d]oxazol-2-yl)ethane-1,2-diamine hydrochloride]",> 2
2,"CCCCCCCCCCCc1ccc2oc(NCCN)nc2c1 [Compound 13d, N^1-undecylbenzo[d]oxazol-2-yl)ethane-1,2-diamine hydrochloride]",> 2
3,"CCCCCCCCCCCCc1ccc2oc(NCCN)nc2c1 [Compound 13e, N^1-dodecylbenzo[d]oxazol-2-yl)ethane-1,2-diamine hydrochloride]",> 2
4,"CCCCCCCCCCc1ccc2oc(NCCCN)nc2c1 [Compound 13f, hydrochloride]",> 2
5,"CCCCCCCCCCc1ccc2oc(NCCCCN)nc2c1 [Compound 13g, N^1-decylbenzo[d]oxazol-2-yl)butane-1,4-diamine carbamate hydrochloride]",> 2
6,"CCCCCCCCCCc1ccc2oc(NCCCCCN)nc2c1 [Compound 13h, N^1-decylbenzo[d]oxazol-2-yl)pentane-1,5-diamine hydrochloride]",> 2
7,"CCCCCCCCCCc1ccc2oc(NC3CNC3)nc2c1 [Compound 13i, N-(azetidin-3-yl)-5-decylbenzo[d]oxazol-2-amine 2,2,2-trifluoroacetate]",> 2
8,"CCCCCCCCCCc1ccc2oc(N[C@@H]3CNC[C@@H]3F)nc2c1 [Compound 13l, 5-decyl-N-((3R,4S)-4-fluoropyrrolidin-3-yl)benzo[d]oxazol-2-amine hydrochloride]",≤ 2
9,"CCCCCCCCCCc1ccc2oc(NC3CCNCC3)nc2c1 [Compound 13m, 5-decyl-N-(piperidin-4-yl)benzo[d]oxazol-2-amine Hydrochloride]",≤ 2
10,"CCCCCCCCCCc1ccc2oc(N3CC[C@H](N)C3)nc2c1 [Compound 13n, (S)(5-decylbenzo[d]oxazol-2-yl)pyrrolidin-3-amine Hydrochloride]",> 2
11,"CCCCCCCCCCc1ccc2oc(N3CC[C@@H](N)C3)nc2c1 [Compound 13o, (R)(5-decylbenzo[d]oxazol-2-yl)pyrrolidin-3-amine Hydrochloride]",> 2
12,"CCCCCCCCCCc1ccc2oc(N3CCNCC3)nc2c1 [Compound 13p, 5-Decyl(piperazin-1-yl)benzo[d]oxazole Hydrochloride]",> 2
13,"CCCCCCCCCCc1ccc2nc(NCCN)oc2c1 [Compound 13q, N^1-decylbenzo[d]oxazol-2-yl)ethane-1,2-diamine hydrochloride]",> 2
14,"CCCCCCCCCCc1ccc2nc(NCCCN)oc2c1 [Compound 13r, N^1-decylbenzo[d]oxazol-2-yl)propane-1,3-diamine hydrochloride]",> 2
15,"CCCCCCCCCCc1cccc2nc(NCCN)oc12 [Compound 13u, N^1-decylbenzo[d]oxazol-2-yl)ethane-1,2-diamine hydrochloride]",> 2
16,"CCCCCCCCCCc1cccc2nc(NCCCN)oc12 [Compound 13v, N^1-decylbenzo[d]oxazol-2-yl)propane-1,3-diamine hydrochloride]",> 2
17,"CCCCCCCCCCc1cccc2oc(NCCN)nc12 [Compound 13w, N^1-decylbenzo[d]oxazol-2-yl)ethane-1,2-diamine hydrochloride]",> 2
18,"CCCCCCCCCCc1cccc2oc(NCCCN)nc12 [Compound 13x, N^1-decylbenzo[d]oxazol-2-yl)propane-1,3-diamine hydrochloride]",> 2
19,"CCCCCCCCCCc1ccc2nc(N(CCN)CCN)oc2c1 [Compound 13y, N1-aminoethyl)-N1-(6-decylbenzo[d]oxazol-2-yl)ethane-1,2-diamine dihydrochloride]",≤ 2
20,"CCCCCCCCCCc1ccc2nc(N3CC[C@H](N)C3)oc2c1 [Compound 13z, (S)(6-decylbenzo[d]oxazol-2-yl)pyrrolidin-3-amine Hydrochloride]",> 2
21,"CCCCCCCCCCc1ccc2nc(NCCN)sc2c1 [Compound 17a, N^1-decylbenzo[d]thiazol-2-yl)ethane-1,2-diamine hydrochloride]",> 2
22,"CCCCCCCCCCc1ccc2nc(NCCCN)sc2c1 [Compound 17b, N^1-decylbenzo[d]thiazol-2-yl)propane-1,3-diamine hydrochloride]",> 2
23,"CCCCCCCCCCc1ccc(NC(=O)N2CCC(N)CC2)cc1 [Compound 20a, 4-amino-N-(4-decylphenyl)piperidine-1-carboxamide Hydrochloride]",≤ 2
24,"CCCCCCCCCCc1ccc(NC(=O)NCCCN)cc1 [Compound 20b, 1-Aminopropyl)-3-(4-decylphenyl)urea Hydrochloride]",≤ 2
25,"CCCCCCCCCCc1ccc(NC(=O)OCCN)cc1 [Compound 23a, 2-Aminoethyl (4-decylphenyl)carbamate Hydrochloride]",> 2
